# Results published in patent US5776957A, “Nornicotine enantiomers for use as a treatment for dopamine related conditions and disease states” (The University of Kentucky Research Foundation, priority 1996, dated 1998).
# “Also recorded” adds a separate entry of the source. Like-named read-outs stand apart in the source and are kept apart here.
# Key:
# [1] = GC-MS, Deutsch et al., 1992; cited from earlier work
# [2] = system: [3H]DA-preloaded rat striatal slices (nicotinic receptors); experiment: [3H]overflow (DA release) from [3H]DA-preloaded rat striatal slices; type: cell-based
# Procedure: In vitro pharmacological effects of NIC are generally investigated using either striatal slices or synaptosome preparations preloaded with [^3 H] DA. NIC-evoked [^3 H]overflow is obtained routinely in the presence of nomifensine (10 μM; a DA uptake inhibitor) and for pargyline (10 μM, a monoamine oxidase inhibitor) in the superfusion buffer, such that [^3 H]overflow represents primarily [^3 H]DA rather than [H]DA-metabolites (Zumstein et al., 1981, Hoffmann and Cubeddu, 1982, Dwoskin and Zahniser, 1986, Rapier et al., 1988), and for this reason, [^3 H]overflow also will be referred to as [^3 H] DA release in the proposal.
# The present studies use striatal slices superfused with various concentrations of NIC or norNIC for prolonged periods.
# FIG. 4. […] Insets illustrate the response to the low concentration range. […] NIC exposure indicated by the bar under time course. Note: 1-min sample collection period. […] N=4 rats.
# Rat striatal slices were depolarized with 10 μM NIC, 20 mM K+or 1 Hz, 60 pulses or 3 Hz, 180 pulses electrical field stimulation. […] N=4.
# MEC or DHβE was included in the superfusion buffer for 60 min prior to the addition of NIC, and superfusion continued for 60 min in the presence of NIC+antagonist.
# [3] = i.p. [14C-N-methyl]NIC, HPLRC; cited from earlier work
# [4] = NIC and metabolites in rat brain after s.c. injection of radiolabelled NIC; type: in vivo
# Excerpt: NIC metabolism studies involving HPLRC analysis invariably utilize NIC with a radiolabel (i.e., [^3 H], [^14 C] or [^11 C]) incorporated in the methyl group. However N-demethylated NIC metabolites (norNIC and norCOT) cannot be detected after injection of such radionuclides, since the label is lost in the formation of these metabolites. NIC and four NIC metabolites have recently been detected in rat brain 4 hr after s.c. injection of [2'-^14 C]NIC (FIG. 3, Table I). Three of these metabolites have been identified as COT, norNIC and norCOT. A fourth minor metabolite (Peak B) has not been completely identified but appears to be an N-demethylated metabolite, since it is not detected in the [^3 H-N-methyl]NIC studies.
# COT, and therefore, is unlikely to originate from COT N-demethylation. 3-HydroxyCOT and its glucuronide conjugate were not detected as metabolites of either NIC or COT in brain, even though these are major biotransformation products in the periphery (Crooks, 1993).
# It appears that NIC metabolites which accumulate with a time course that correlates with the development of behavioral sensitization to NIC have a role in eliciting sensitization to NIC. The inventors have detected NIC, COT, norNIC and norCOT in brain 4 hr following acute s.c. injection of (±)[2'-^14 C]NIC. S(-) [^3 H] -N-methyl]NIC is unsuitable for studying brain metabolism of NIC, since nor-metabolites (i.e., demethylated metabolites) cannot be detected due to [^3 H]-loss during metabolism (Crooks et al., 1995b, AP 7). Thus, commercially available (±)[2'-^14 C]NIC was used to determine NIC metabolites present in brain. This form of radiolabelled NIC provides a metabolically stable [^14 C]-label which allows measurement of all potential NIC metabolites.
# A second "metabolite" (Peak A, FIG. 2) was also detected at each time point and most likely results from a combination of metabolic cleavage of the N-methyl group and dissociated-[^3 H], i e, Peak A represents an oxidized 1-carbon unit and indicates the extent of NIC N-demethylation. Note, in our subsequent studies with [2'-^14 C]NIC, Peak A was not observed, which is consistent with our interpretation of the results (Table 1).
# [5] = Stolerman et al., 1984; cited from earlier work
# [6] = Stolerman et al. (1995), cited from earlier work
# [7] = system: N-methyl-D-aspartate(NMDA) receptor; conditions: MK-801 site within the channel; cited from earlier work
# [8] = cited from earlier work
# [9] = water, ethyl alcohol, ether, chloroform, benzene, ethyl acetate, carbon disulfide; cited from earlier work
# [10] = system: nicotinic receptor sites in the brain; experiment: displacement of nicotine from nicotinic receptor sites in the brain; type: binding
# [11] = Locomotor activity assay, acute and repeated treatment, S(-) nicotine challenge, saline challenge; type: in vivo, rat; conditions: for behavioral sensitization after repeated administration: 8 injections once every 48 hrs, nicotine 1 mg/kg, R(+) 0.3-10 mg/kg, S(-) nornicotine 10 mg/kg; for enabling of sensitization to S(-) nicotine: repeated R(+) nornicotine, S(-) nicotine challenge
# Procedure: (I mg/kg), norNIC (0.3-10 mg/kg) or R(+) norNIC (0.3-10 mg/kg) was administered peripherally (s.c., 8 injections once every 48 hrs) to groups of rats and locomotor activity was assessed for 50 min immediately after each injection.
# In the present study, S(-) nicotine (1 mg/kg), R(+) nornicotine (1-10 mg/kg), S(-) nornicotine (1-10 mg/kg), or vehicle (saline) were administered s.c. to groups of rats (n=6) acutely or repeatedly (8 injections once every 48 hrs). Locomotor activity was measured during 50 min sessions immediately following drug or vehicle administration.
# Male Sprague-Hawley rats (225-250 g) from Harlan Laboratories were housed two per cage with free access to food and water.
# Activity was recorded automatically in a wooden test-chamber measuring 30×28×43 cm high. The chamber had white walls and a wire mesh floor over pine chip bedding. Two photobeams located 4.5 cm above the floor divided the chamber into four equal quadrants. Electromechanical equipment located in an adjacent room recorded photobeam interruptions automatically. A white noise generator provided an ambient 70 dB background noise in the test room in order to minimize extraneous sounds that might influence the animal's behavior in the test chamber. Rats were habituated to the chamber for 50 min on each of three consecutive days.
# On the day immediately after the third habituation session, rats were randomly divided into groups (n=6/group) and were administered s.c. either S(-) nicotine (1 mg/kg), R(+) nornicotine (0.3, 1, 3 and 10 mg/kg), or vehicle (saline) to determine acute drug effects on locomotor activity. In a separate experiment, rats (n=6/group) were administered s.c. either S(-) nicotine (1 mg/kg), S(-) nornicotine (0.3, 1, 3 and 10 mg/kg), or vehicle (saline). To determine the effect of repeated drug administration on locomotor activity, drug or vehicle was administered respectively in the test-room once every 48 hrs for a total of 8 injections. After each injection, locomotor activity was recorded during a 50 min session (five 10-min blocks). On the ninth injection day (48 hrs following injection 8), each group of rats was administered a challenge dose (1 mg/kg) of S(-) nicotine in the test-room, and locomotor activity was determined immediately thereafter. On the tenth injection day, each group of rats was administered saline and locomotor activity recorded to determine potential conditioning effects of the repeated drug administration.
# Post hoc analysis of pairwise comparisons was performed with Duncan's New Multiple Range test.
compound,measurement,setting,value
"CN1C(=O)CC[C@H]1c1cccnc1 [COT, Cotinine]",presence in rat brain after peripheral NIC injection,[1],not found in rat brain
same,evoked [3H]overflow,[2]; concentration-dependent,concentration dependent increase
same,detection in mouse brain,[3],detected
same,detectability in brain at 18 hrs post-injection,[4]; 18 hrs,still detectable
same,residence time in the CNS relative to NIC,[4]; rat brain,longer residence time in the CNS than NIC
same,presence as metabolite in brain,"[4]; rat brain, after s.c. radiolabelled NIC",major metabolite of NIC in brain
"CNC1(C)C2CCC(C2)C1(C)C (centres unmarked) [MEC, mecamylamine]",effect on nicotine interoceptive cues,[5],blocks nicotine interoceptive cues
same,inhibition of NIC-evoked [3H]overflow,"[2]; 10 μM NIC, concentration-dependent",robustly inhibited
same,effect on [3H]DA release itself,[2]; 0.01-100 μM,did not alter [^3 H]DA release itself
same,inhibition of norNIC-evoked [3H]overflow,[2]; high concentrations (100 μM-3 mM) of norNIC,ineffective in inhibiting
same,inhibition of norNIC-evoked [3H]overflow,[2]; low concentrations (<100 μM) of norNIC,effectively inhibited
same,mode of antagonism of norNIC response,[2]; norNIC concentration-response curve,noncompetitive
same,block of R(+) norNIC-induced decrease in locomotor activity,[6],blocked
same,NMDA receptor inhibition,[7],noncompetitive inhibitor
CN1CCCC1=O [N-methyl-2-pyrrolidone],toxicity,[8]; Ames type assays and chronic exposure studies,not revealed any significant toxicity
same,irritation or sensitization potential,[8]; animal and human experiments,very little irritation or sensitization potential
same,miscibility,[9],miscible with water
"c1cncc([C@H]2CCCN2)c1 [R(+) nornicotine, R-(+) nornicotine]",release of dopamine from presynaptic terminals,[2]; neuronal tissue,stereoselective and receptor-mediated
same,displacement of nicotine from nicotinic receptor sites,[10],cause displacement of nicotine
same,cross-sensitization after chronic nicotine,[6],"increased activity, demonstrating cross-sensitization; also recorded: increased activity (i.e., cross-sensitization)"
same,"locomotor activity, acute",[6],decreased locomotor activity
same,cross-sensitization after chronic nicotine,[6]; listed as R(+) norNIC,cross-sensitization to R(+) norNIC was observed
same,behavioral sensitization after repeated administration,[11],did not produce behavioral sensitization; also recorded: did not result in behavioral sensitization; also recorded: does not
same,behavioral sensitization after repeated administration,[11]; listed as R(+) norNIC,does not
same,conditioned response to repeated administration (saline challenge),[11]; 48 hrs after S(-) nicotine challenge,did not contribute to the observed behavioral sensitization
same,cumulated locomotor activity after saline challenge,"[11]; R(+) experiment, 0.3 mg/kg",368 ± 39 number of photobeam interruptions/50 min session
same,cumulated locomotor activity after saline challenge,"[11]; R(+) experiment, 1.0 mg/kg",478 ± 40 number of photobeam interruptions/50 min session
same,cumulated locomotor activity after saline challenge,"[11]; R(+) experiment, 3.0 mg/kg",498 ± 44 number of photobeam interruptions/50 min session
same,cumulated locomotor activity after saline challenge,"[11]; R(+) experiment, 10 mg/kg",234 ± 30 number of photobeam interruptions/50 min session
same,locomotor activity time course,[11]; acute R(+) 0.3 mg/kg,"small, but not significant, decreases"
same,locomotor activity time course,"[11]; acute R(+) 10 mg/kg, initial 20 min",significantly decreased
same,locomotor activity time course,"[11]; acute R(+) 10 mg/kg, latter part of session",not different from the saline-control group
same,cumulated locomotor activity vs saline-control,"[11]; acute, 0.3 and 10 mg/kg, R(+) experiment",depression in activity
same,"locomotor activity, first 10 min","[11]; acute, R(+) 3 mg/kg s.c.",125±17 photobeam interruptions
same,"locomotor activity, first 10 min after S(-) nicotine challenge",[11]; repeated R(+) 1 mg/kg,127±12 photobeam interruptions
same,"locomotor activity, first 10 min after S(-) nicotine challenge",[11]; repeated R(+) 3 mg/kg,136+32 photobeam interruptions
same,locomotor activity time course,[11]; repeated R(+) 0.3-10 mg/kg,not different from that of the saline-control group
same,cumulated locomotor activity after S(-) nicotine challenge,[11]; repeated R(+) 0.3 and 1 mg/kg,not different from the saline-control group
same,"S(-) nicotine-induced stimulation, first 10 min",[11]; repeated R(+) 1-10 mg/kg,significant (P<0.001) and dose-dependent
same,cumulated locomotor activity after S(-) nicotine challenge,[11]; repeated R(+) 3 and 10 mg/kg,significant increases in activity
same,enabling of sensitization to S(-) nicotine,[11],enabled sensitization to S(-) nicotine; also recorded: dose-related sensitization to the stimulatory effect of S(-) nicotine
same,enabling of sensitization to S(-) nicotine,[11]; listed as R(+) norNIC,enabled an enhanced response to NIC challenge
same,"S(-) nicotine-induced stimulation, first 10 min","[11]; repeated, R(+) 0.3 mg/kg",not significant
same,cumulated locomotor activity vs saline-control,"[11]; repeated, R(+) 0.3 mg/kg",decreased significantly
same,tolerance to depressant effect,"[11]; repeated, R(+) 0.3 mg/kg",tolerance did not develop
same,tolerance to depressant effect,"[11]; repeated, R(+) 10 mg/kg",tolerance developed
same,cumulated locomotor activity vs saline-control,"[11]; repeated, R(+) 1, 3 and 10 mg/kg",not different from that of the saline-control group
